Source: US6416737B1, “Increasing bone strength with selected bisphosphonates” (Board of Trustees of the University of Arkansas, priority 1998, dated 2002)
Read-outs that look alike come from different tables or passages of the source.

What was measured:
MLO-Y4 osteocytic cells = settings: for prevention of apoptosis induced by etoposide or TNF-α: 10^−7 M, 6 h; for prevention of apoptosis induced by etoposide or TNF-α / inhibition of glucocorticoid-induced apoptosis: 1 h pretreatment; for cell viability in the absence of pro-apoptotic stimuli: 10^−10 to 10^−3 M; for inhibition of glucocorticoid-induced apoptosis: then dexamethasone 10^−6 M for 6 h
Protocol: The murine long bone-derived osteocytic cell line MLO-Y4 was provided by Dr. Lynda Bonewald (University of Texas Health Center at San Antonio, Tex.). Cells were cultured in phenol red-free αMEM supplemented with 5% FBS, 5% bovine calf serum, 100 U/ml penicillin and 100 μg/ml streptomycin. Cells were plated at 1-2×10^4 cells/cm^2 on collagen type I coated plates, as described previously (Kato, et al., 1997. J. Bone Miner. Res. 12:2014-2023). Murine calvaria cells were obtained from neonatal (3- to 6-day old) C57BL/6J mice by controlled digestion with collagenase, as previously described (Bellido, et al., 1997. Endocrinology 138:3666-3676). After isolation, cells were cultured in 10% FBS at 1-2×10^4 cells/cm^2 until 90-95% confluence. Subsequently, cells were harvested and frozen for later use. UMR-106-06 cells were cultured in phenol red-free MEM supplemented with 10% FBS, 1% non-essential aminoacids, 100 U/ml penicillin, and 100 μg/ml streptomycin (Sakagami, et al., Manolagas. 1993. J. Bone Miner. Res. 8:811-816).
Nonadherent cells were combined with adherent cells released from the culture dish using trypsin-EDTA, resuspended in medium containing serum, and collected by centrifugation. […] At least 100 cells per condition were counted.
(§1) MLO-Y4 osteocytic cells and calvaria osteoblastic cells were treated for 1 hour in the absence or presence of different BPs or sCT. Subsequently, dexamethasone, etoposide or TNF-α were added to obtain final concentrations of 10^−6 M, […], or 1 nM, respectively, and cells were incubated for additional 6 h. The effect of PD98059 (50 μM) or UO126 (1 μM) was evaluated by pretreating the cells with the inhibitors for 30 min before adding the BPs or sCT. In the experiment using the membrane permeable caspase inhibitor DEVD, cells were cultured for 1 hour with 50 nM DEVD-CHO and subsequently the pro-apoptotic agents were added to reach the final concentrations indicated above. […] At least 500 cells from fields selected by systematic random sampling were examined for each experimental condition. […] The TUNEL reaction was performed according to the manufacturer's instructions, using 0.15% CuSO4 for color enhancement. Negative controls were made by omitting the transferase from the reaction. Cells presenting brown nuclear staining were considered positive. More than 500 cells per condition were analyzed. Apoptosis of parental MLO-Y4 or calvaria cells was quantified by trypan blue staining (Jilka, et al., 1998. J. Bone Miner. Res. 13:793-802). Nonadherent cells were combined with adherent cells released from the culture dish using trypsin-EDTA, resuspended in medium containing serum, and collected by centrifugation. […] At least 100 cells per condition were counted.
MLO-Y4 cells were incubated for 1 h in vehicle or 50 nM DEVD-CHO. Subsequently, etoposide, TNF-α, or dexamethasone (Dex) were added at final concentrations of 50 μg/ml, 1 nM, or 10^−6 M, respectively, and cells were incubated for additional 6 h. Dead cells were enumerated by trypan blue uptake.
The percentage of dead cells was determined by trypan blue uptake, as in Methods and Materials. Bars represent the mean ±S.D. of three independent measurements.
Subsequently, etoposide, TNF-α, or dexarnethasone were added to reach final concentrations of 50 μg/ml, 1 nM, or 10^−6 M, respectively, and cells were cultured for 6 h, as in FIG. 1. The percentage of dead cells was determined by trypan blue uptake. Bars represent the mean ±S.D. of three independent measurements. Data were analyzed by two-way ANOVA.

[1] = test system: MLO-Y4 cells stably transduced with GFP; assay: Apoptosis by nuclear morphology of MLO-Y4 cells transduced with nuclear GFP; assay type: cell-based, murine; settings: absence of dexamethasone; 10^−7 M
Protocol: Supernatants containing retroviral particles were collected 24-48 h after transfection, and used immediately to infect cell cultures. […] Subsequently, cells were exposed to the supernatants containing the viral particles once more before being trypsinized and plated at low density.
Cells presenting brown nuclear staining were considered positive. More than 500 cells per condition were analyzed. […] At least 100 cells per condition were counted.

[2] = test system: osteoblastic cells derived from murine calvaria; assay: Apoptosis of osteoblastic cells derived from murine calvaria by trypan blue uptake; assay type: cell-based; settings: 10^−7 M, 1 h pretreatment; 6 h
ERK1/2 = ERK1/2 phosphorylation in MLO-Y4 cells by Western blot; assay type: cell-based, murine; settings: 10^−7 M
Protocol: Monolayers were washed with cold 20 mM Tris-HCl (pH 7.5), 150 mM NaCl, 1 mM sodium orthovanadate and lysed in the lysis buffer mentioned above. Insoluble material was pelleted in a microcentrifuge at 14,000×rpm for 10 mn. […] Proteins (10 μg) were separated on 7.5% SDS-polyacrylamide gels and electrotransferred to a polyvinylidene difluoride membrane. Immunoblotting was performed using a mouse monoclonal antibody recognizing tyrosine phosphorylated ERK1/2, or a rabbit polyclonal antibody recognizing total ERK1/2, followed by incubation with either an antimouse or an antirabbit antibody conjugated with horseradish peroxidase. Blots were developed using Chemiluminescence according to the manufacturer's recommendations. Quantitation of the intensity of the bands in the autoradiograms was performed using a scanner (Microtek Lab., Redondo Beach, Calif.).

osteoclast = settings: cited from earlier work
[3] = rats, intravenously; cited from earlier work
osteocytic MLO-Y4 cells = assay: TUNEL reaction in MLO-Y4 cells; assay type: cell-based, murine; settings: 10^−7 M alendronate 1 h and/or 10^−6 M dexamethasone 6 h
Protocol: as §1

[4] = test system: osteocyte and osteoblast apoptosis in murine vertebral cancellous bone; assay: Murine model of glucocorticoid excess: TUNEL in vertebral bone sections and spinal BMD by DEXA; assay type: in vivo, Male Swiss Webster mice; settings: alendronate beginning 3 days before prednisolone pellets
Excerpt: To adjust for the difference in the metabolic rate in mice compared to that in humans, the daily glucocorticoid dose was divided by the metabolic weight, i.e. the weight in kg to the 3/4 power (Borchard, et al., 1992. Drug dosage in laboratory animals: a handbook. CRC Press, Inc., Boca Raton, Fla. 514 pp.; Kleiber, M. 1961. The fire of life: an introduction to animal energetics. New York). […] One control group received saline injections with placebo pellet implantation while another group received saline injections plus prednisolone pellets. Dual-energy X-ray absorptiometry (DEXA) was used to determine spinal bone mineral density (spinal BMD) at the end of the 56-day experiment, as previously described (Weinstein et al., 1998. J. Clin. Invest. 102:274-282).
Sections of vertebral bone (L1 to L5) were mounted on silane-coated glass slides (Scientific Device Lab, Inc., Des Plains, Ill.), deplasticized and incubated in 10 mM citrate buffer, pH 7.6, in a microwave oven at 98° C. for 5 minutes (Jilka, et al., 1998. J. Bone Miner. Res. 13:793-802). Slides were then incubated with 0.5% pepsin for 30 minutes at 37° C. Apoptotic cells were detected by the TUNEL reaction as described above using 0.15% CuSO4 for color enhancement of the diaminobenzidine in sections counterstained with 1% methyl green. The TUNEL reaction is noted within cell nuclei and the cells whose nuclei were clearly brown from the streptavidin-horse radish peroxidase conjugate instead of blue-green from the methyl green were interpreted as positive. Plastic-embledded sections of weaned rat mammary tissue were used as a positive control. Negative controls were made by omitting the transferase from the TUNEL reaction. Morphological changes characteristic of apoptosis were carefully examined to minimize ambiguity regarding the interpretation of results. […] Osteocytes were identified inside lacunae in mineralized bone (FIG. 11A). Osteoblasts were identified as cuboidal cells lining the osteoid-covered trabecular perimeter (FIG. 11B).

[5] = cited from earlier work
osteoblast apoptosis = settings: intermittent PTH administration in mice; decreased from 1.7-2.2%; cited from earlier work

Protocol for caspase-3: Caspase-3 activity was measured by determining the degradation of the fluorometric substrate DEVD, that contains acid sequence of the caspase-3 cleavage site in poly(ADP-ribose)polymerase (PARP) (Schlegel, et al., 1996. J. Biol. Chem. 271:1841-1844) conjugated with 7-amino-4-trifluoromethyl coumarin (DEVD-AFC). Cells were lysed in 20 mM Tris-HCl (H 7.5), 150 mM NaCl, 1 mM EDTA, 10 mM NaF, 1 mM sodium orthovanadate, 5 μg/ml leupeptin, 0.14 U/ml aprotinin, 1 mM phenylmethylsulfonylfluoride, and 1% Triton X-100. Protein concentration was measured using a Bio-Rad detergent compatible kit (Hercules, Calif.). Lysates (100 μg protein) were incubated with 50 μM DEVD-AFC in 50 mM HEPES, pH 7.4, 100 mM NaCl, 0.1% CHAPS, 10 mM DTT, 1 mM EDTA, 10% glycerol, in the absence or presence of the irreversible inhibitor DEVD-CHO for 60 min. The released fluorescent AFC was measured in a microplate fluorescence reader FL500 (Bio Tek Instruments, Winooski, Vt.) with excitation/emission wavelengths of 340/542 nm.
Caspase-3 activity was determined by measuring the degradation of the fluorometric substrate DEVD-AFC in the absence or presence of the irreversible inhibitor DEVD-CHO, as detailed in Example 5.

CN(C)CCC(N)(P(=O)(O)O)P(=O)(O)O [IG-9402, 1-amino-3-(N,N-dimethylamino)-propyliden-1,1-bisphosphonic acid]
prevention of apoptosis induced by etoposide or TNF-α (MLO-Y4 osteocytic cells): prevented apoptosis
cell viability in the absence of pro-apoptotic stimuli (MLO-Y4 osteocytic cells): did not affect cell viability
inhibitory effect on glucocorticoid-induced apoptosis at high concentrations (MLO-Y4 osteocytic cells; concentrations higher than 10^−6 M): persisted at high concentrations
proportion of cells exhibiting chromatin condensation and/or nuclear fragmentation versus untreated [1]: no significant differences
inhibition of apoptosis of osteoblastic cells induced by dexamethasone, TNF-α and etoposide [2]: inhibited apoptosis
earliest time at which increased ERK phosphorylation was observed (ERK1/2): 0.5 min
phosphorylation of ERK 1 and 2 (ERK1/2): rapid and transient increase
antiresorptive activity / effect on osteoclast (osteoclast): lacks anti-resorptive activity
potency ratio to affect the osteoclast, relative to pamidronate (osteoclast): ⅙
antiresorptive activity / effect on osteoclast (osteoclast; listed as IG9204): do not block osteoclast activity at all
antiresorptive activity / effect on osteoclast (osteoclast; listed as IG9402): devoid of any antiresorptive activity

CC(=O)N[C@@H](CS)C(=O)O [N-acetylcysteine, acetarnido-mercaptopropionic acid]
LD50 [3]: 1140 mg/kg

NCCCC(O)(P(=O)(O)O)P(=O)(O)O [alendronate, 4-amino-1-hydroxybutylidene-1,1-bisphosphonate]
number of living MLO-Y4 cells (MLO-Y4 osteocytic cells; 10^−6 M dexamethasone 24 h, 10^−7 M alendronate 1 h pretreatment): abolished this effect
prevention of apoptosis induced by etoposide or TNF-α (MLO-Y4 osteocytic cells): prevented apoptosis
cell viability in the absence of pro-apoptotic stimuli (MLO-Y4 osteocytic cells): did not affect cell viability
inhibition of glucocorticoid-induced apoptosis (MLO-Y4 osteocytic cells): Comparable responses
% of TUNEL positive cells (osteocytic MLO-Y4 cells): 6.16%
Number of TUNEL positive cells (osteocytic MLO-Y4 cells): 35
number of TUNEL negative cells (osteocytic MLO-Y4 cells): 533
inhibition of apoptosis of osteoblastic cells induced by dexamethasone, TNF-α and etoposide [2]: inhibited apoptosis
earliest time at which increased ERK phosphorylation was observed (ERK1/2): 0.5 min
phosphorylation of ERK 1 and 2 (ERK1/2): rapid and transient increase
bone loss induced by the glucocorticoid [4]: prevented the bone loss
increase in bone cell apoptosis induced by the glucocorticoid [4]: abolished the increase in bone cell apoptosis
dexamethasone-induced increase in caspase-3 activity (caspase-3; 10^−7 M alendronate 1 h, then 10^−6 M dexamethasone 16 h): inhibited the dexamethasone-induced increase in caspase-3 activity
caspase-3 activity, TUNEL positive cells and number of living cells (caspase-3; alendronate alone, absence of dexamethasone): did not affect any of these parameters

CC(O)(P(=O)(O)O)P(=O)(O)O [etidronate]
inhibition of glucocorticoid-induced apoptosis (MLO-Y4 osteocytic cells): Comparable responses
phosphorylation of ERK 1 and 2 (ERK1/2): increase in the phosphorylated fraction of ERKs
reduction of resorption depth in human iliac trabecular bone ([5]; after one year of treatment): ~30%

[F-].[Na+] [sodium fluoride]
increase in vertebral bone mass ([5]; for at least four years): 10 % a year

B1: PTH: parathyroid hormone, intermittent administration (protein, UniProt P01270 32-115, looked up)
Parathyroid hormone: SVSEIQLMHNLGKHLNSMERVEWLRKKLQDVHNFVALGAPLAPRDAGSQRPRKKEDNVLVESHEKSLGEADKADVNVLTKAKSQ
modifications: Parathyroid hormone
notes: parathyroid hormone, intermittent administration
prevalence of osteoblast apoptosis (osteoblast apoptosis): 0.1-0.4%
